Source: US7465559B2, “Method for calibrating antibiotic disk diffusion testing of microorganisms” (Bioscand AB, priority 2001, dated 2008)

Key:
[1] = system: Escherichia coli isolates; experiment: disk diffusion test of Escherichia coli clinical isolates against norfloxacin, Karolinska hospital, zone diameter histograms 1988 and 1999; format: cell-based
Protocol: (§1) Different types of susceptibility tests can be used to test the antimicrobic susceptibility of a microorganism. One type of susceptibility test is the disk diffusion test. This is a standardized test, in which a plate containing a growth medium in agar gel is inoculated with a microbial isolate and one or more disks impregnated with fixed concentrations of antibiotics are placed thereon. After appropriate incubation, the diameter of zones of inhibition around the disks (if present) are registered in order to determine the sensitivity of the inoculated microorganism to the particular antimicrobial agent impregnated in each disk.
The microbial species to be tested can be any cultivable microorganism, such as a bacterial species or a fungal species. In order to obtain species-related and laboratory-related interpretive breakpoints, a histogram of for example clinical isolates can be used. The method is especially suitable for analyzing inhibition zone diameters from disk diffusion tests with clinical isolates from a bacterial species, which may contain resistant strains against an antibiotic. Thus, no outliers are excluded. The number of isolates or percent isolates are plotted on the y-axis and the growth inhibition zone diameter values from paper disks impregnated with the antibiotic are plotted on the x-axis. When the method of O'Brien et al. (J. Am. Med. Assoc. 210:84, 1969) is used, histograms are obtained with percent isolates on the y-axis and zone diameter values from 6 mm (paper disk diameter) to 60 mm on the x-axis. However, the inventive method is equally well adapted for a microdilution tests, the concentration data being minimal inhibitory concentrations. All data can be computerized.
It can be seen that the zone diameter values for these clinical isolates cluster around 29-30 mm with a distribution of ±8 mm.
The results from 1988 in FIG. 1 were compared with similar results eleven years later (FIG. 2). In this histogram a number of isolates now appear, which have inhibition zones all the way down to no zone, the size of the 6 mm disk. The comparison was accomplished by means of computer analysis according to the inventive method for calibrating antimicrobic susceptibility testings of microorganisms.
First, the slope downwards was tracked and the shift to decreasing values at the peak position identified by comparing sliding means (each based on two zone diameter figures). Then, the percentages of the isolates of the upper half of the population were determined and converted to probit values. A regression using the least squares method was then performed and the theoretical percentages for the whole population calculated.
In this calculation, it is assumed that 3 SD below the mean includes 99.86 percent of the normally susceptible strains in this group. A suitable limit for susceptibility interpretation and comparative analysis of antimicrobic resistance could then be defined as three times the standard deviation below the mean value.

E. coli [2] = experiment: disk diffusion test of E. coli against gentamicin, laboratory KS, SRGA methodology; format: cell-based, Escherichia coli; details: 10 μg gentamicin disk
Protocol: as §1
(§2) In this example histograms of zone diameter values from disk test results for E. coli tested against the antibiotic gentamicin were analyzed according to the principle of normalized resistance interpretation. One laboratory (KS) used the SRGA (Swedish Reference Group for Antibiotics) methodology and a disk content of 10 μg gentamicin, whereas the other laboratory on a different continent (AR, a clinical microbiology laboratory in South America) used the NCCLS (National Committee for Clinical Laboratory Standards) standardization and a 5 μg gentamicin disk.
(§3) The different methods used result in different positionings of the major, susceptible populations of strains (FIG. 5). […]

E. coli [3] = experiment: disk diffusion test of E. coli against gentamicin, laboratory AR (South America), NCCLS standardization; format: cell-based, Escherichia coli; details: 5 μg gentamicin disk
Protocol: as §1, §2, §3

Compound | mean value of inhibition zone diameters, customary statistical procedure ([1]; 1988, 3756 isolates, disk 10 μg, SD 3.22) [mm] | mean of normalized Gaussian distribution of theoretical normal population ([1]; 1988, 3756 isolates, disk 10 μg, SD 3.25) [mm] | zone diameter values of clinical isolates cluster around ([1]; 1988 histogram, disk content 10 μg, distribution ±8 mm) | limit for resistance (zone breakpoint, 3 SD below normalized mean) ([1]; 1988 population) [mm] | percent resistance of isolates ([1]; 1988 population, limit 19 mm) [%] | limit for resistance (zone breakpoint, 3 SD below normalized mean) ([1]; 1999 population) [mm] | percent resistance of isolates ([1]; 1999 population, limit 20 mm) [%] | mean of normalized Gaussian distribution of theoretical normal population ([1]; eleven years later (1999), 5944 isolates, SD 3.22) [mm] | mean value of inhibition zone diameters, customary statistical procedure ([1]; eleven years later (1999), all 5944 isolates, SD 7.39) [mm] | R-limit for resistance (normalized zone breakpoint) (E. coli [2]) [mm] | R-limit for resistance (normalized zone breakpoint) (E. coli [3]) [mm]
CCn1cc(C(=O)O)c(=O)c2cc(F)c(N3CCNCC3)cc21 [norfloxacin] | 29.16 | 29.27 | 29-30 mm | 19 | 0.56 | 20 | 10.8 | 30.49 | 28.24 | – | –
gentamicin | – | – | – | – | – | – | – | – | – | < 21 | < 17
